For experiment [1], the system named is Streptococcus sp. 'group A'. The experiment is described as follows: growth inhibition of control SK(-) GAS strain, dose response, counter-screen for streptokinase expression inhibitor project, luminescence, kanamycin, BacTiterGlo, confirmation (AID 1900). The format is functional, organism-based. Particulars: read-out: EC50. Background: The purpose of a counterscreen is to sort out artefacts and off-target activity.

In another experiment the test system is Streptococcus. Put plainly: Group A Streptococcus viability loss, dose response, counter-screen for streptokinase expression inhibitor project, luminescence, BacTiterGlo (AID 1915).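 Note: potency for reduction of bacterial viability or growth.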 The format is functional, organism-based.
For experiment [2], the target named is Glucose-6-phosphate 1-dehydrogenase (Homo sapiens, UniProt P11413). The experiment is described as follows: human G6PD enzyme inhibitors, dose response, selectivity assay for P. falciparum G6PD inhibitor project, biochemical, fluorescence (AID 504792). The format is functional.
The next experiment concerns the target SUMO E1/E2 (Homo sapiens, UniProt P63279+Q9UBE0+Q9UBT2). Put plainly: SAR analysis of SUMOylation using HTRF in an in-Vitro dose response assay. [Related pubchem assays (depositor defined):AID2006, AID2011, AID2018, AID2069, AID2658]. The experiment is classed as functional. (TR-FRET usually uses a lanthanide donor and a delayed reading to cut background.)

The target of a further experiment is Exodeoxyribonuclease V (Escherichia coli (strain K12), UniProt P04993+P07648+P08394). The experiment is described as follows: E. coli RecBCD inhibitors, dose response, counter-screen for AddAB inhibitor project, absorbance, V66 E. coli, mutant T4 phage (AID 492957). The format is functional, cell-based, Escherichia coli str. K-12 substr. MG1655.
Experiment [3] deals with Intestinal-type alkaline phosphatase (Homo sapiens, UniProt P09923). The experiment is described as follows: human IAP inhibitors, dose response, biochemical, luminescent, uHTS hits, set 2 (AID 488793). The format is functional.
Experiment [4] concerns the target T1, RNA-binding protein pos-1 (Caenorhabditis elegans, UniProt G5EF15).
T1 sequence (G5EF15 whole entry): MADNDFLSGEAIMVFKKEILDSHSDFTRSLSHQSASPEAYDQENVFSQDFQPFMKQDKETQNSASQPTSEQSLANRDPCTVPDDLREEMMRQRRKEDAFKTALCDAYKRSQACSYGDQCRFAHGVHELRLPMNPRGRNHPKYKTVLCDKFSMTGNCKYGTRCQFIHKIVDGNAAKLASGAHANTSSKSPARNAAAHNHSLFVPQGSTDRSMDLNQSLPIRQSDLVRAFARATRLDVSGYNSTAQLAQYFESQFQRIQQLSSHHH
Put plainly: inhibitors of POS-1/mex-3 RNA binding, dose response, biochemical, fluorescence polarization (AID 1964).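 Note: purified POS-1 fused to maltose binding protein made in E. coli; potency of compounds blocking POS-1 binding to fluorescent RNA.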

The next experiment has as its target Large T antigen (Simian virus 40, UniProt P03070). The format is functional, Betapolyomavirus macacae.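 Note: Confirmatory-stage PubChem screen for compounds that inhibit SV40 T antigen.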
Experiment [5] addresses Induced myeloid leukemia cell differentiation protein Mcl-1 (Homo sapiens, UniProt Q07820). The experiment is classed as functional.
In a further experiment the target is ORF 73 (Human herpesvirus 8, UniProt O40947). The experiment is described as follows: inhibitors of C-LANA binding to LBS DNA, dose response, biochemical, fluorescence polarization, cherry-picked samples (AID 504725).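 Note: fluorescence polarization of a labeled DNA duplex reporting LANA DNA binding; potency is for inhibitors that block LANA binding to the DNA.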 More on the design: species or system Human gammaherpesvirus 8. For orientation: Fluorescence polarisation rises when a labelled molecule tumbles more slowly, as on binding a larger partner.

In experiment [6] the target is Eukaryotic translation initiation factor 4E (Mus musculus, UniProt P63073). Put plainly: eIF4E–eIF4G protein interaction inhibitors, dose response, biochemical, TR-FRET (AID 855).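 Note: potency for disrupting eIF4E binding to eIF4GI seen as loss of FRET.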 The experiment is classed as functional.
Eukaryotic translation initiation factor 4E, sequence (P63073 whole entry): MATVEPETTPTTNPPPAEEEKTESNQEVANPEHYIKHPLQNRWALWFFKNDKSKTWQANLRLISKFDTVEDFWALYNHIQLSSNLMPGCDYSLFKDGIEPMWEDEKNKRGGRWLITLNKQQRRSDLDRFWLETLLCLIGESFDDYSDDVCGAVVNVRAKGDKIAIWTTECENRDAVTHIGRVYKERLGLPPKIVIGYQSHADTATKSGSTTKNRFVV
Experiment [7] concerns the target T2, Rac GTPase-activating protein 1 (Homo sapiens, UniProt Q9H0H5).
T2 sequence (Q9H0H5 whole entry): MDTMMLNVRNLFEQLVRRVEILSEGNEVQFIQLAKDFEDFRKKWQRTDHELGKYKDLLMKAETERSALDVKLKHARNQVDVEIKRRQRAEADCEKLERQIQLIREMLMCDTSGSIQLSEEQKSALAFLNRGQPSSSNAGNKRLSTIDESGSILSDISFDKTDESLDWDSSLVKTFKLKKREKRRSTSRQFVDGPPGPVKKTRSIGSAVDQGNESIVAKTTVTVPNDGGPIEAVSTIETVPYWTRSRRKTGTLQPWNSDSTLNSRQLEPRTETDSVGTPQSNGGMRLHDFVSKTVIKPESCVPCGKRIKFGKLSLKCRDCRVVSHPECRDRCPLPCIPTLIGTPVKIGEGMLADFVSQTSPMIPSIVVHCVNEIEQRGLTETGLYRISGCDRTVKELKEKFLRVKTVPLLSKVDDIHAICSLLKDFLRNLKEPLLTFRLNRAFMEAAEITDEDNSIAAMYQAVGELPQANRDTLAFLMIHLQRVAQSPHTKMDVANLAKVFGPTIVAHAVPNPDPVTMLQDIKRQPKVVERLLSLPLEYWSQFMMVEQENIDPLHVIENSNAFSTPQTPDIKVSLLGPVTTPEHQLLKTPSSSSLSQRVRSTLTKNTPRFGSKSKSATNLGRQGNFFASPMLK
Put plainly: MgcRacGAP GTPase-activating activity inhibitors, confirmation, biochemical, ADP Hunter fluorescence, primary and confirmatory (AID 624330). The format is functional.

For experiment [8], the target named is ALK tyrosine kinase receptor (Homo sapiens, UniProt Q9UM73). The format is functional.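 Note: ALK tested as one member of a kinase panel screen.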
In experiment [9] the target is Serine/threonine-protein kinase D3 (Homo sapiens, UniProt O94806). The experiment is classed as functional.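 Note: determined within a kinase panel screen, with PRKCN as the panel member.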
Experiment [10] concerns the target Testis-specific serine/threonine-protein kinase 1 (Homo sapiens, UniProt Q9BXA7). The format is functional.
Experiment [11] concerns the target Mitogen-activated protein kinase 13 (Homo sapiens, UniProt O15264). The experiment is classed as functional.
The target in experiment [12] is Dual specificity tyrosine-phosphorylation-regulated kinase 4 (Homo sapiens, UniProt Q9NR20). The format is functional.
Dual specificity tyrosine-phosphorylation-regulated kinase 4, sequence (Q9NR20 whole entry): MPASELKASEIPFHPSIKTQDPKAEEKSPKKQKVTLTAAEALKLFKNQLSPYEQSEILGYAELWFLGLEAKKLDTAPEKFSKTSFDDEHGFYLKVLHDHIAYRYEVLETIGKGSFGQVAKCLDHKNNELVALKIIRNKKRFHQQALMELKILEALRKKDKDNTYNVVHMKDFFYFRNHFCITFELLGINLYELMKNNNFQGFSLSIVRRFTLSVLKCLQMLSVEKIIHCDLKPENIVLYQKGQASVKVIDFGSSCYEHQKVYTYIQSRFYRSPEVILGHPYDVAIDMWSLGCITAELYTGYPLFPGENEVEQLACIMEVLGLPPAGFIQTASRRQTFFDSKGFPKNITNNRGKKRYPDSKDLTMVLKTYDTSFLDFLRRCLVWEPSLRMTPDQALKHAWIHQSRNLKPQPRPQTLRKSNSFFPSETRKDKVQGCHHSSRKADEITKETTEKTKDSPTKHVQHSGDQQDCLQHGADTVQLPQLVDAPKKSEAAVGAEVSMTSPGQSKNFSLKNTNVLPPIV
Experiment [13] has as its target Maternal embryonic leucine zipper kinase (Homo sapiens, UniProt Q14680). The format is functional.
Experiment [14] deals with Cyclin-dependent kinase 8 (Homo sapiens, UniProt P49336). Put plainly: Navigating the Kinome. Panel member name: CDK8. The experiment is classed as functional.
Cyclin-dependent kinase 8, sequence (P49336 whole entry): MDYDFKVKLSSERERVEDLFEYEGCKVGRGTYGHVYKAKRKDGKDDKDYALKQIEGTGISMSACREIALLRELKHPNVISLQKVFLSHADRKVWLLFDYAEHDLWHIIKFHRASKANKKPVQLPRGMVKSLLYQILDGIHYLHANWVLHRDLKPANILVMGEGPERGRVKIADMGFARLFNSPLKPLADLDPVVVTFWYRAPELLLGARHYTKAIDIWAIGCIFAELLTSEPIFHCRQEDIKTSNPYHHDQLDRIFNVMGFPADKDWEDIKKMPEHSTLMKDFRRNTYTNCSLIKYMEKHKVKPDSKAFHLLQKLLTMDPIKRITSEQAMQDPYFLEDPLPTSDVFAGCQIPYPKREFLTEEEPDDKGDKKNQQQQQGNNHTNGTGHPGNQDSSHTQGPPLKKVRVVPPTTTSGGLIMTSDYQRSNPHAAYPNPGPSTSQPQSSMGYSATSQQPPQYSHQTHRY
Experiment [15] deals with Cyclin-dependent kinase 7 (Homo sapiens, UniProt P50613). The experiment is classed as functional.
Cyclin-dependent kinase 7, sequence (P50613 whole entry): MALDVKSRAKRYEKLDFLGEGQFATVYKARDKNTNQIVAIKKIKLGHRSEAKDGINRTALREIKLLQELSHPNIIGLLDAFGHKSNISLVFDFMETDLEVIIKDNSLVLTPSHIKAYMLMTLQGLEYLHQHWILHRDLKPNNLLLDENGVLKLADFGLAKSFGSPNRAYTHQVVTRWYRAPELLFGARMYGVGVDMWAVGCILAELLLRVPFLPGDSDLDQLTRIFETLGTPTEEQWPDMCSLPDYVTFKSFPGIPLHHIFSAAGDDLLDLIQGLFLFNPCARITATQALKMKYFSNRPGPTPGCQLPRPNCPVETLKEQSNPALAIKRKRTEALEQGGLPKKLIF
Experiment [16] has as its target Glycogen synthase kinase-3 beta (Homo sapiens, UniProt P49841). The format is functional.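 Note: value comes from a broad kinome profiling panel, with GSK3B as the panel member.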
In experiment [17] the target is Serine/threonine-protein kinase MRCK alpha (Homo sapiens, UniProt Q5VT25). The format is functional.
Serine/threonine-protein kinase MRCK alpha, sequence (Q5VT25 whole entry): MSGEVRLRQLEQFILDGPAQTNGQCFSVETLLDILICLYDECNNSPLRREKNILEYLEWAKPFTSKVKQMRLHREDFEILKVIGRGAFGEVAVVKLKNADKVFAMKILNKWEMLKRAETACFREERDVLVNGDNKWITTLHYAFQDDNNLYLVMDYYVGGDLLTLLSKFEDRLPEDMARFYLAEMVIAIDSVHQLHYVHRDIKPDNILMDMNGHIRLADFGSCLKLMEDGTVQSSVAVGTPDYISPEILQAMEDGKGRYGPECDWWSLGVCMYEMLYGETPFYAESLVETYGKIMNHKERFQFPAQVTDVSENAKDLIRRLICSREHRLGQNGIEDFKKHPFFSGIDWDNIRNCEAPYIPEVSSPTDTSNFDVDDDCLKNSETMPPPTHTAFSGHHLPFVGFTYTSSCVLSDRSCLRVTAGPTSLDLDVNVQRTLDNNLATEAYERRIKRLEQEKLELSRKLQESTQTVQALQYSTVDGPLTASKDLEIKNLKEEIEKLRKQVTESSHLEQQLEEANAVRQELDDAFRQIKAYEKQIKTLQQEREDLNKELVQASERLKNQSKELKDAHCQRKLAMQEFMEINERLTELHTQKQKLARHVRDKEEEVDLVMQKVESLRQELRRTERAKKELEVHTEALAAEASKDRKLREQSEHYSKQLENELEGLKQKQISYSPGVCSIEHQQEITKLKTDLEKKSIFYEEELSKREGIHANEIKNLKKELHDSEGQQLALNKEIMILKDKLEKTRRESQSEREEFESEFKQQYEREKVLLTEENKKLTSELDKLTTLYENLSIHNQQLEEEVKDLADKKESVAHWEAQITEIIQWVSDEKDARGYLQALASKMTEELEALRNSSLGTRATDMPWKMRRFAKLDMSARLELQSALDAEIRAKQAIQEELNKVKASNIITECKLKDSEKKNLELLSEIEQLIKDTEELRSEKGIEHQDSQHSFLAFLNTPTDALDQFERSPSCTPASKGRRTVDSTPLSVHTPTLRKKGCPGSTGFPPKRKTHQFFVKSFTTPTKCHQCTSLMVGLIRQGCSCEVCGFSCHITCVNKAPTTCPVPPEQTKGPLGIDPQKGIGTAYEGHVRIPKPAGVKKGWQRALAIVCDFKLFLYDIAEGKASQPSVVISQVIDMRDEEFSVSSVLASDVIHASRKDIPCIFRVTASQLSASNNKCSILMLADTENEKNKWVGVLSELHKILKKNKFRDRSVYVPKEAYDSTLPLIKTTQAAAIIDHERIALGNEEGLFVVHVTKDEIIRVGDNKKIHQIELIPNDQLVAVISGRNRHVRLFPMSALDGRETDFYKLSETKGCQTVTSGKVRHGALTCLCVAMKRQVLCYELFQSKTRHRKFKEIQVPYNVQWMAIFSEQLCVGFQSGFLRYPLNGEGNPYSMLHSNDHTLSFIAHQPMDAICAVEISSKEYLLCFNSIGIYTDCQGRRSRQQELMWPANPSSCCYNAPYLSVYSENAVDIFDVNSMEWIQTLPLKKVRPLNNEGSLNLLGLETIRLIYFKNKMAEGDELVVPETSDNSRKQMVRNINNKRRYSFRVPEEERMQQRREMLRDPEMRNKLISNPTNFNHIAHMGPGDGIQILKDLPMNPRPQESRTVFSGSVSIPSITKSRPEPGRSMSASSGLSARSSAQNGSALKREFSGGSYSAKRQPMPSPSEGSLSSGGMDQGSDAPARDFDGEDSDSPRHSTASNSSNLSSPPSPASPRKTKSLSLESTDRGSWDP
Experiment [18] has as its target Tyrosine-protein kinase receptor UFO (Homo sapiens, UniProt P30530). The experiment is classed as functional.
In experiment [19] the target is Tyrosine-protein kinase FRK (Homo sapiens, UniProt P42685). The experiment is classed as functional.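 Note: FRK tested as one member of a kinome panel.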

The source made the active and inactive calls.

Tyrosine-protein kinase receptor UFO, sequence (P30530 whole entry): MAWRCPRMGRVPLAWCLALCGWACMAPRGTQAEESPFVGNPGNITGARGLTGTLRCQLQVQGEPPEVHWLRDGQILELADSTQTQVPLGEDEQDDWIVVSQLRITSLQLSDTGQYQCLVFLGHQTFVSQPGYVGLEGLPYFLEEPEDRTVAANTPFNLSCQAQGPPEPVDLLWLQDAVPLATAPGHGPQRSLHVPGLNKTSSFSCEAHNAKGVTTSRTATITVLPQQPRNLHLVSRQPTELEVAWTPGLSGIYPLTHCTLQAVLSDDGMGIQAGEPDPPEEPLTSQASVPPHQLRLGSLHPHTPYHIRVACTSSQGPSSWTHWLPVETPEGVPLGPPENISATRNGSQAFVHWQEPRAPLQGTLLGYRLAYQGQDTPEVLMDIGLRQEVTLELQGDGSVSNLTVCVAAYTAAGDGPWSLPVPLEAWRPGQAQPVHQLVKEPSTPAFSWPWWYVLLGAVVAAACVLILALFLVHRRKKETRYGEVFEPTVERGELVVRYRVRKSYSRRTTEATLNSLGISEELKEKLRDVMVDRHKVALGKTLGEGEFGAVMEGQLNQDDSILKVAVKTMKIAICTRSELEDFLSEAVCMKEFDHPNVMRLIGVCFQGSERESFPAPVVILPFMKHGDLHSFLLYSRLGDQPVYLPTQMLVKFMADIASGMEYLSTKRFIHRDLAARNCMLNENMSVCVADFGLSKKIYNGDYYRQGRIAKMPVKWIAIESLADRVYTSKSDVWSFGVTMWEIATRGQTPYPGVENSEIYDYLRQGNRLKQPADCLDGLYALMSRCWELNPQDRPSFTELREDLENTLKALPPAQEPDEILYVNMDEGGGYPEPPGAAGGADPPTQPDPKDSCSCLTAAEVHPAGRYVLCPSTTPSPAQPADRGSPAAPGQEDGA
Induced myeloid leukemia cell differentiation protein Mcl-1, sequence (Q07820 whole entry): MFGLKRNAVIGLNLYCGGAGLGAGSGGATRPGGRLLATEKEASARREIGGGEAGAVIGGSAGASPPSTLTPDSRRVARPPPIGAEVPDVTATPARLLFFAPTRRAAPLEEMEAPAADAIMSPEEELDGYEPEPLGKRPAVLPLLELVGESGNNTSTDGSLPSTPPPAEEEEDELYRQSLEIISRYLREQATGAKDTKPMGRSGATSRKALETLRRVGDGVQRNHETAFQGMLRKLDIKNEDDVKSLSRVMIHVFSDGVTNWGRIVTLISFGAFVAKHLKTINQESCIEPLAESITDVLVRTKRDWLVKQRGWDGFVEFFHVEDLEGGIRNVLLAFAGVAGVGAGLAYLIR
Glycogen synthase kinase-3 beta, sequence (P49841 whole entry): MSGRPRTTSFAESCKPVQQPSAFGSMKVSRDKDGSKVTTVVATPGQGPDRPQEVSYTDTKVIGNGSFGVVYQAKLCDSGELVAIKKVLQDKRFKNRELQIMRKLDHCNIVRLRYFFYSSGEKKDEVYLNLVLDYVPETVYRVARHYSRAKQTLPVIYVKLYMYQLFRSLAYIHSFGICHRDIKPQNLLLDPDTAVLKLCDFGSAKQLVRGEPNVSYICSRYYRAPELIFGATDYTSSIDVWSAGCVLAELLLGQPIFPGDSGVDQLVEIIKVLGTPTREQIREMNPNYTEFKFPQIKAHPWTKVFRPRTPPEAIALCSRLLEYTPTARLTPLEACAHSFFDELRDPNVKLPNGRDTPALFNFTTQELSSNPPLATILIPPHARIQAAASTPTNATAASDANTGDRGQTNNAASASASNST

Consider `O=C1C=C(N2CCCCC2)c2ccccc2C1=O`, for which the EC50 (as a rule, the concentration at which the effect is half-maximal) in experiment [1] was 1880 nM (active); in the experiment with Streptococcus, > 50000 nM (not active).
As for `Clc1ccc2nc(-c3ccc(Br)s3)cn2c1`, the IC50 (in general, the concentration that inhibits the measured activity by half) in [2] was > 80000 nM (inactive).
In the case of `CC(=O)NC1C(=O)N(CCN2CCOCC2)c2ccc(F)cc21` (stereo not drawn), the IC50 at SUMO E1/E2 was 13400 nM (active).
Regarding `Oc1ccc(N=Nc2c(O)ccc3ccccc23)cc1`, the IC50 at Exodeoxyribonuclease V is > 118000 nM (inactive); in experiment [3] it was 15500 nM (active).
With `O=C(O)C1Nc2c(O)cc(Cl)c([N+](=O)[O-])c2C2C=CCC12` (stereo not drawn), the EC50 in [4] is 216000 nM (inconclusive). Moreover, the IC50 at Large T antigen was 9860 nM (active); in [5], > 54000 nM (active); in experiment [6], 5210 nM (active); in experiment [7], 27900 nM (active). Moreover, on ORF 73, the AC50 (usually the midpoint of the concentration-response curve, whichever way the signal moves) was 5020 nM (active).
`Cc1n[nH]c2ccc(-c3cncc(OCC(N)Cc4cccc(Cl)c4)c3)cc12` (stereo not drawn): the Ki (in general, a measure of affinity in units of concentration, obtained from inhibition or displacement) was > 1260 nM (inactive) in [8]; 3.98 nM (active) in experiment [9]; 100 nM (active) in experiment [10]; 631 nM (active) in [11]; 316 nM (active) in experiment [12]; 79.4 nM (active) in [13]. Moreover, the Ki is 1.58 nM (active) in experiment [14]; 20 nM (active) in experiment [15]; 15.8 nM (active) in experiment [16]; 7.94 nM (active) in experiment [17]; 158 nM (active) in experiment [18]; > 2510 nM (inactive) in [19]. The pKi (in general, the Ki on a negative log10 scale, so that one unit is a factor of ten) was found to be 8.8 in experiment [14], 7.7 in experiment [15], 8.1 in experiment [17] and 6.8 in experiment [18].

The values are drawn from ChEMBL document CHEMBL1201862, “PubChem BioAssay data set” (2004).
